Measured values as given in patent US12102608B2, “Composition of acylethanolamides from olive oil fatty acids” (EPITECH GROUP S.P.A., priority 2021, dated 2024).

Experiments:
Type in all cases: in vivo, rat
[1] = test system: paw edema of animals injected with CAR; assay: Carrageenan-induced paw edema, plethysmometer; details: per os 30 min before CAR in 2% CMC; PEA 2 mg/kg, OEA 6 mg/kg, complex/silica 20 mg/kg; 1 h to 6 h after CAR; FIG. 1
Procedure: The study was conducted on male Sprague-Dawley rats (200-235 g; Harlan, Nossan, Italy) fed ad libitum and housed in cages with a controlled sleep/wake cycle. Before the start of the experimentation, the animals were subjected to an acclimatization period of 1 week considering all the experimental procedures and protocols, compliant with the principles of the care of laboratory animals approved by the Italian Ministry of Health and respecting the guidelines of the European Economic Community. The animals were subjected to a single injection of 100 μl of saline solution containing 1% Carrageenan (CAR) in one of the two hind legs. Paw edema was measured with a plethysmometer (Ugo Basile, Comerio, Varese, Italy) (Salvemini D et al. Nitric oxide: A key mediator in the early and late phase of carrageenan-induced rat paw inflammation. Br. J. Pharmacol. 1996; 118: 829-838) before the CAR injection and after the inoculation thereof every hour for 6 h. The hyperalgesic responses to heat were assessed using the plantar test with a cut-off latency of 20 sec to avoid tissue damage. […] The suspension latency period of the injected paw was determined by an electronic circuit and the results were expressed in seconds. Edema was expressed as increased paw volume (mL) after the CAR injection with respect to the pre-injection value for all the animals. […]

[2] = test system: CAR-induced thermal hyperalgesia; assay: Plantar test, thermal hyperalgesia after CAR injection; details: per os 30 min before CAR in 2% CMC; PEA 2 mg/kg, OEA 6 mg/kg, complex/silica 20 mg/kg; 1 h to 6 h after CAR, vs. vehicle; FIG. 2
Procedure: The study was conducted on male Sprague-Dawley rats (200-235 g; Harlan, Nossan, Italy) fed ad libitum and housed in cages with a controlled sleep/wake cycle. Before the start of the experimentation, the animals were subjected to an acclimatization period of 1 week considering all the experimental procedures and protocols, compliant with the principles of the care of laboratory animals approved by the Italian Ministry of Health and respecting the guidelines of the European Economic Community. The animals were subjected to a single injection of 100 μl of saline solution containing 1% Carrageenan (CAR) in one of the two hind legs. Paw edema was measured with a plethysmometer (Ugo Basile, Comerio, Varese, Italy) (Salvemini D et al. Nitric oxide: A key mediator in the early and late phase of carrageenan-induced rat paw inflammation. Br. J. Pharmacol. 1996; 118: 829-838) before the CAR injection and after the inoculation thereof every hour for 6 h. The hyperalgesic responses to heat were assessed using the plantar test with a cut-off latency of 20 sec to avoid tissue damage. The rats were individually housed in plexiglass compartments to acclimatize them before subjecting them to thermal stimulation. The suspension latency period of the injected paw was determined by an electronic circuit and the results were expressed in seconds. […]

[3] = test system: tissue damage of the paw of animals subjected to CAR injection; assay: Histology of paw tissue (Hematoxylin/Eosin), tissue damage score; details: per os 30 min before CAR; PEA 2 mg/kg, OEA 6 mg/kg, complex/silica 20 mg/kg; tissue taken 6 h after CAR; FIG. 3
Procedure: (§1) The study was conducted on male Sprague-Dawley rats (200-235 g; Harlan, Nossan, Italy) fed ad libitum and housed in cages with a controlled sleep/wake cycle. Before the start of the experimentation, the animals were subjected to an acclimatization period of 1 week considering all the experimental procedures and protocols, compliant with the principles of the care of laboratory animals approved by the Italian Ministry of Health and respecting the guidelines of the European Economic Community. […]

[4] = test system: mast cells in the paw tissue; assay: Toluidine Blue staining of mast cells in paw tissue; details: per os 30 min before CAR; PEA 2 mg/kg, OEA 6 mg/kg, complex/silica 20 mg/kg; 6 h after CAR; PEA and OEA compared with sham; FIG. 4
Procedure: as §1

Row | SMILES | edema (increased paw volume) caused by CAR [1] | CAR-induced thermal hyperalgesia (plantar test latency) [2] | paw tissue damage (E/E histological score) [3] | number of mast cells / mast cell infiltrate in paw tissue [4]
1 | CCCCCCCC/C=C\CCCCCCCC(=O)NCCO [OEA, oleoylethanolamide] | No significant reduction in the edema | No analgesic effect | not capable of protecting the paw tissues | significant increase in the number of mast cells
2 | CCCCCCCCCCCCCCCC(=O)NCCO [PEA, palmitoylethanolamide] | No significant reduction in the edema | No analgesic effect | not capable of protecting the paw tissues | significant increase in the number of mast cells
